Measured values as given in publication PMC5762338, “A novel orally available Syk/Src/Jak2 inhibitor, SKLB-850, showed potent anti-tumor activities in B cell lymphoma (BCL) models” (Oncotarget, 2017).

Assays:
Format in all cases: cell-based, Human
[1] = test system: Ramos cells; assay: Cell cycle analysis by FCM; settings: 18 hours; for percentages of cells in the G2 phase (in words): compared with the control
Procedure: (§1) FCM was again used to examine the influence of SKLB-850 on the tumor cell cycle.
(§2) Figure 2 Cell cycle analysis of Ramos and HBL-1 cells induced by SKLB-850, R788 DMSO or control Tumor cells were treated by vehicle, R788 or indicated concentrations of compounds. After 18 hours, cell were harvested and stained with AnnexinV-FITC and propidium iodide, and then analyzed by FCM. […] (A and C) Cell cycle analysis of Ramos cells. (B and D) Cell cycle analysis of HBL-1 cells. […] Columns, mean; bars, SD.^##P < 0.01, 850 group versus DMSO or blank control group.
(§3) Ramos and HBL-1 cells cultured in 6-well plates were treated with DMSO, R788, SKLB-850 or medium. After 18 hours, cells were harvested and washed with PBS, fixed with 70% ethanol for 30 min, stained with 200 μL PI (50 μg/mL PI with 1 mg/mL RNase I, and 0.1% Triton X-100) for 30 min. Cell cycle was analyzed with a flow cytometer (BD FACSCalibur, BD, USA).

[2] = test system: HBL-1 cells; assay: Cell cycle analysis by FCM; settings: HBL-1, compared with the control, 18 hours
Procedure: as §1, §2, §3

[3] = test system: Ramos cells; assay: Apoptosis assay, AnnexinV-FITC/propidium iodide FCM; settings: treatment for 18 hours
Procedure: Figure 1 The chemical structure of SKLB-850 and its anti-tumor effects in vitro (A) The chemical structure of SKLB-850. (B and C) Apoptosis of Ramos cells induced by SKLB-850. Cells were treated by vehicle, R788 or indicated concentrations of compounds. After 18 hours, Cell were harvested and stained with AnnexinV-FITC and propidium iodide, then the apoptosis cells were analyzed by FCM. (D and E) Apoptosis of HBL-1 cells induced by SKLB-850. Cells were treated by vehicle, R788 or indicated concentrations of compounds. After 24 hours, Cell were harvested and stained with AnnexinV-FITC and propidium iodide, then the apoptosis cells were analyzed by FCM. […] Columns, mean; bars, SD. ^##P<0.01, or ^#P<0.05, SKLB-850 group versus vehicle group. […]
The ability of SKLB-850 to induce apoptosis of BCL cells was analyzed by FCM. […]
Flow cytometry (FCM) assays were performed to investigate the apoptosis of Ramos and HBL-1 cells induced by SKLB-850. […] Cell apoptosis was analyzed with a flow cytometer (BD FACSCalibur, BD, USA).

Row | Compound | percentage of G2 phase cells ([1]; 0.01μg/mL, control 19.64 ± 0.61 %) | percentages of cells in the G2 phase (in words) [1] | percentages of cells in the G2 phase (in words) [2] | percentages of apoptotic cells (in words) [3]
1 | CN1CCN(c2ccc(Nc3ncc(F)c(Nc4ccc(Cl)cc4C(N)=O)n3)cc2)CC1 [SKLB-850, 5-chloro-2-((5-fluoro-2-((4-(4-methylpiperazin-1-yl)phenyl)amino)pyrimidin-4-yl)amino) benzamide] | 53.90 ± 2.65% | significantly increased | significantly increased | dose-dependently increased
2 | COc1cc(Nc2ncc(F)c(Nc3ccc4c(n3)N(COP(=O)(O)O)C(=O)C(C)(C)O4)n2)cc(OC)c1OC [R788, reference compound] |  | very weak effect | very weak effect | induced apoptosis but obviously much weaker
